# Target: T1, human FXR (Homo sapiens, UniProt Q96RI1)
# T1 construct: expressed in transfected cells; host or cells: HEK293 cells stably carrying a 5xGal4-response-element firefly luciferase reporter, transiently transfected with pcDNA3.1-Gal4-FXR
# T1 sequence (Q96RI1 262-486 limits assumed): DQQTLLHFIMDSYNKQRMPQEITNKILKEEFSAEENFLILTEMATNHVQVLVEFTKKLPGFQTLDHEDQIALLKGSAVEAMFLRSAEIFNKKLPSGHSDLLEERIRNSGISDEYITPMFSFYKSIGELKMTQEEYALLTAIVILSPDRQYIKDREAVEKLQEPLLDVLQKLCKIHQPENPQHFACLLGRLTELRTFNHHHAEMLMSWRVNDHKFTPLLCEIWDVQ
# Assay: transient human FXR/Gal4-luciferase reporter assay
# Type: cell-based
# Details: Gal4-hFXR LBD fusion, luciferase reporter in HEK293 cells; response relative to 8 μM GW-4064
# Outline: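 HEK293 cells stably carrying a 5×Gal4-response-element firefly luciferase reporter were transiently transfected with Gal4-hFXR. They were then incubated overnight at 37 °C with compound serial dilutions in medium containing 10% charcoal/dextran-stripped FBS. Luminescence was read after Steady-Glo addition.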
row,SMILES,EC50 [nM]
1,"COc1cc(-c2cccc(N(CC34CCC(C(=O)NC5CC5)(CC3)CC4)C(=O)C3CCCCC3)c2)ccn1 [Example 98, N-cyclopropyl-4-((N-(3-(2-methoxypyridin-4-yl)phenyl)cyclohexanecarboxamido)methyl)bicyclo[2.2.2]octane-1-carboxamide]",399
2,"COc1cc(-c2cccc(N(CC34CCC(C#N)(CC3)CC4)C(=O)C3CCCCC3)c2)ccn1 [Example 99, N-((4-cyanobicyclo[2.2.2]octan-1-yl)methyl)-N-(3-(2-methoxypyridin-4-yl)phenyl)cyclohexanecarboxamide]",1530
3,"COc1cc(-c2cccc(N(CC34CCC(c5nnnn5C)(CC3)CC4)C(=O)C3CCCCC3)c2)ccn1 [Example 100, N-(3-(2-methoxypyridin-4-yl)phenyl)-N-((4-(1-methyl-1H-tetrazol-5-yl)bicyclo[2.2.2]octan-1-yl)methyl)cyclohexanecarboxamide]",506
4,"CCOc1ccc(-c2cc(N(CC34CCC(c5noc(C(C)(F)F)n5)(CC3)CC4)C(=O)C3CCC(F)(F)CC3)ccc2F)cc1 [Example 105, N-((4-(5-(1,1-difluoroethyl)-1,2,4-oxadiazol-3-yl)bicyclo[2.2.2]octan-1-yl)methyl)-N-(4′-ethoxy-6-fluoro-[1,1′-biphenyl]-3-yl)-4,4-difluorocyclohexane-1-carboxamide]",637
5,"CCOc1ncc(-c2cc(N(CC34CCC(c5noc(C(C)(F)F)n5)(CC3)CC4)C(=O)C3CCC(F)(F)CC3)ccc2F)cn1 [Example 106, N-((4-(5-(1,1-difluoroethyl)-1,2,4-oxadiazol-3-yl)bicyclo[2.2.2]octan-1-yl)methyl)-N-(3-(2-ethoxypyrimidin-5-yl)-4-fluorophenyl)-4,4-difluorocyclohexane-1-carboxamide]",406
6,"CC(F)(F)c1nc(C23CCC(CN(C(=O)C4CCC(F)(F)CC4)c4ccc(F)c(-c5ccc(S(C)(=O)=O)cc5)c4)(CC2)CC3)no1 [Example 107, N-((4-(5-(1,1-difluoroethyl)-1,2,4-oxadiazol-3-yl)bicyclo[2.2.2]octan-1-yl)methyl)-4,4-difluoro-N-(6-fluoro-4′-(methylsulfonyl)-[1,1′-biphenyl]-3-yl)cyclohexane-1-carboxamide]",1020
7,"CC(F)(F)c1nc(C23CCC(CN(C(=O)C4CCOCC4)c4cccc(-c5ccc(OC(F)F)cc5)c4)(CC2)CC3)no1 [Example 109, N-((4-(5-(1,1-difluoroethyl)-1,2,4-oxadiazol-3-yl)bicyclo[2.2.2]octan-1-yl)methyl)-N-(4′-(difluoromethoxy)-[1,1′-biphenyl]-3-yl)tetrahydro-2H-pyran-4-carboxamide]",50
8,"CC(F)(F)c1nc(C23CCC(CN(C(=O)C4CCS(=O)(=O)CC4)c4cccc(-c5ccc(OC(F)F)cc5)c4)(CC2)CC3)no1 [Example 110, N-((4-(5-(1,1-difluoroethyl)-1,2,4-oxadiazol-3-yl)bicyclo[2.2.2]octan-1-yl)methyl)-N-(4′-(difluoromethoxy)-[1,1′-biphenyl]-3-yl)tetrahydro-2H-thiopyran-4-carboxamide 1,1-dioxide]",467
9,"CC(F)(F)c1nc(C23CCC(CN(C(=O)C4CCC(F)(F)CC4)c4cccc(-c5ccc(OC(F)F)cc5)c4)(CC2)CC3)no1 [Example 111, N-((4-(5-(1,1-difluoroethyl)-1,2,4-oxadiazol-3-yl)bicyclo[2.2.2]octan-1-yl)methyl)-N-(4′-(difluoromethoxy)-[1,1′-biphenyl]-3-yl)-4,4-difluorocyclohexane-1-carboxamide]",69
10,"CCOc1ccc(-c2cccc(N(CC34CCC(c5noc(C(C)(F)F)n5)(CC3)CC4)C(=O)C3CCC(F)(F)CC3)c2)cc1 [Example 113, N-((4-(5-(1,1-difluoroethyl)-1,2,4-oxadiazol-3-yl)bicyclo[2.2.2]octan-1-yl)methyl)-N-(4′-ethoxy-[1,1′-biphenyl]-3-yl)-4,4-difluorocyclohexane-1-carboxamide]",665

# The next lines start with the values.
row,EC50 [nM],SMILES
1,250,"CC(C)(C)c1noc(C23CCC(CN(C(=O)C4CCC(F)(F)CC4)c4cccc(-c5nc(C6CC6)no5)c4)(CC2)CC3)n1 [Example 103, N-((4-(3-(tert-butyl)-1,2,4-oxadiazol-5-yl)bicyclo[2.2.2]octan-1-yl)methyl)-N-(3-(3-cyclopropyl-1,2,4-oxadiazol-5-yl)phenyl)-4,4-difluorocyclohexane-1-carboxamide]"
2,250,"Cc1nc2ccc(-c3cc(N(CC45CCC(c6noc(C(C)(F)F)n6)(CC4)CC5)C(=O)C4CCC(F)(F)CC4)ccc3F)cc2s1 [Example 108, N-((4-(5-(1,1-difluoroethyl)-1,2,4-oxadiazol-3-yl)bicyclo[2.2.2]octan-1-yl)methyl)-4,4-difluoro-N-(4-fluoro-3-(2-methylbenzo[d]thiazol-6-yl)phenyl)cyclohexane-1-carboxamide]"
3,142,"CC(F)(F)c1nc(C23CCC(CN(C(=O)C4CCC(F)(F)CC4)c4cccc(-c5nc(C6CC6)no5)c4)(CC2)CC3)no1 [Example 112, N-(3-(3-cyclopropyl-1,2,4-oxadiazol-5-yl)phenyl)-N-((4-(5-(1,1-difluoroethyl)-1,2,4-oxadiazol-3-yl)bicyclo[2.2.2]octan-1-yl)methyl)-4,4-difluorocyclohexane-1-carboxamide]"
4,325,"CC(C)(C)c1noc(C23CCC(CN(C(=O)C4CCC(F)(F)CC4)c4cc(F)cc(-c5nc(C6CC6)no5)c4)(CC2)CC3)n1 [Example 114, N-((4-(3-(tert-butyl)-1,2,4-oxadiazol-5-yl)bicyclo[2.2.2]octan-1-yl)methyl)-N-(3-(3-cyclopropyl-1,2,4-oxadiazol-5-yl)-5-fluorophenyl)-4,4-difluorocyclohexane-1-carboxamide]"
5,83,"CC(C)(C)c1noc(C23CCC(CN(C(=O)C4CCOCC4)c4cc(F)cc(-c5nc(C6CC6)no5)c4)(CC2)CC3)n1 [Example 115, N-((4-(3-(tert-butyl)-1,2,4-oxadiazol-5-yl)bicyclo[2.2.2]octan-1-yl)methyl)-N-(3-(3-cyclopropyl-1,2,4-oxadiazol-5-yl)-5-fluorophenyl)tetrahydro-2H-pyran-4-carboxamide]"
6,61,"CC(C)(C)c1nc(C23CCC(CN(C(=O)C4CCOCC4)c4cccc(-c5nc(C6CC6)no5)c4)(CC2)CC3)no1 [Example 116, N-((4-(5-(tert-butyl)-1,2,4-oxadiazol-3-yl)bicyclo[2.2.2]octan-1-yl)methyl)-N-(3-(3-cyclopropyl-1,2,4-oxadiazol-5-yl)phenyl)tetrahydro-2H-pyran-4-carboxamide]"
7,729,"CC(C)(C)c1nc(C23CCC(CN(C(=O)C4CCS(=O)(=O)CC4)c4cccc(-c5nc(C6CC6)no5)c4)(CC2)CC3)no1 [Example 117, N-((4-(5-(tert-butyl)-1,2,4-oxadiazol-3-yl)bicyclo[2.2.2]octan-1-yl)methyl)-N-(3-(3-cyclopropyl-1,2,4-oxadiazol-5-yl)phenyl)tetrahydro-2H-thiopyran-4-carboxamide 1,1-dioxide]"
8,1950,"CN1CCC(C(=O)N(CC23CCC(c4noc(C(C)(C)C)n4)(CC2)CC3)c2cccc(-c3nc(C4CC4)no3)c2)CC1 [Example 118, N-((4-(5-(tert-butyl)-1,2,4-oxadiazol-3-yl)bicyclo[2.2.2]octan-1-yl)methyl)-N-(3-(3-cyclopropyl-1,2,4-oxadiazol-5-yl)phenyl)-1-methylpiperidine-4-carboxamide]"
